Laboratory results from ChEMBL document CHEMBL1201862, “PubChem BioAssay data set” (2004).
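Results reflect a 48-hour exposure of cells in 96-well plates to compound at five concentrations. The concentration for 50% growth inhibition is given as GI50.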 Active and inactive are the calls of the source. Rule as the data show it: active = GI50 up to about 1.1 µM and inactive = higher. Residues, ends and D or L forms follow the SMILES beside them. *: point of attachment. Cbz = O=C(OCc1ccccc1)*

Experiments:
Experiment in all cases: NCI anticancer screen, dose series, 48 h
[1] = tested on: Hs-578T
[2] = tested on: MDA-N
[3] = tested on: NCI/ADR-RES
[4] = tested on: DU-145
[5] = tested on: MCF7
[6] = tested on: DMS-114
[7] = tested on: LXFL 529

SMILES | GI50 [1] | GI50 [2] | GI50 [3] | GI50 [4] | GI50 [5] | GI50 [6] | GI50 [7]
CCOC(=O)C(NC(=O)CC)(Nc1cc(C)on1)C(F)(F)F (configuration not stated) | > 100 µM (inactive) | > 100 µM (inactive) | > 100 µM (inactive) | – | – | – | –
O=C1Nc2ccccc2C1Cc1ccccc1 (configuration not stated) | > 100 µM (inactive) | > 100 µM (inactive) | – | > 100 µM (inactive) | > 100 µM (inactive) | – | –
COc1ccc(-c2cc(O)c3cc(OC)ccc3n2)cc1 | – | – | – | – | – | > 100 µM (inactive) | > 100 µM (inactive)
CC1C2(C)OC(=N)C(C#N)(C(C)O2)C1(C#N)C#N (configuration not stated) | 29.4 µM (inactive) | 18.6 µM (inactive) | 77.1 µM (inactive) | 25.7 µM (inactive) | 24.8 µM (inactive) | – | –
O=C(c1ccccc1)N1CCC(Nc2cccnc2)O1 (configuration not stated) | 7.64 µM (inactive) | > 100 µM (inactive) | > 100 µM (inactive) | > 100 µM (inactive) | > 100 µM (inactive) | – | –
Cn1c(=O)[nH]c2[nH]c3ccccc3c2c1=O | 65.5 µM (inactive) | > 100 µM (inactive) | > 100 µM (inactive) | > 100 µM (inactive) | > 100 µM (inactive) | – | –
CN(C)CCCNC(=O)c1cc(NC(=O)CCCn2c3ccccc3c3ccccc32)cn1C | – | 35.1 µM (inactive) | > 100 µM (inactive) | > 100 µM (inactive) | 35.5 µM (inactive) | – | –
COC(=O)c1ccc2c(c1)S/C(=C/c1ccc3ccc4cccc5ccc1c3c45)S2 | 37.9 µM (inactive) | 52.5 µM (inactive) | 23.7 µM (inactive) | > 100 µM (inactive) | 33.3 µM (inactive) | – | –
N=C(N)c1ccc(/C=C/c2ccc(C(=N)N)cc2)cc1 | 48 µM (inactive) | > 100 µM (inactive) | 77.3 µM (inactive) | > 100 µM (inactive) | 96.6 µM (inactive) | – | –
O=[N+]([O-])c1ccc(N/N=C(\c2ccccc2)c2ccccn2)nc1 | 4.29 µM (inactive) | 20 µM (inactive) | 0.658 µM (active) | 5.53 µM (inactive) | < 0.0492 µM (active) | – | –
CC(=O)OC1c2ccccc2CCCCCCC12OCCO2 (configuration not stated) | – | – | – | – | – | 61.5 µM (inactive) | –
COc1ccc(/C=C2/CCS(=O)(=O)c3ccc(C)cc3C2=O)cc1OC | 11.5 µM (inactive) | 11.9 µM (inactive) | 11.8 µM (inactive) | 3.73 µM (inactive) | 8.38 µM (inactive) | – | –
CC(C)(C)c1ccc2c(c1)CNCCNCc1cc(C(C)(C)C)ccc1OCC1(CO2)COc2ccc(C(C)(C)C)cc2CNCCNCc2cc(C(C)(C)C)ccc2OC1 | 1.06 µM (active) | 0.649 µM (active) | 1.63 µM (inactive) | 1.73 µM (inactive) | 0.461 µM (active) | – | –
CCOC(=O)N1CCN(Cc2cc(=O)n3ccc(C)cc3n2)CC1 | > 100 µM (inactive) | > 100 µM (inactive) | > 100 µM (inactive) | > 100 µM (inactive) | > 100 µM (inactive) | – | –
COc1ncc(C=C(C#N)C#N)c(OC)n1 | 60.7 µM (inactive) | 26.9 µM (inactive) | 22.6 µM (inactive) | 52.5 µM (inactive) | 36.7 µM (inactive) | – | –
Cc1cn(C2CC(N)C(C(=O)O)O2)c(=O)[nH]c1=O (configuration not stated) | > 100 µM (inactive) | > 100 µM (inactive) | > 100 µM (inactive) | > 100 µM (inactive) | > 100 µM (inactive) | – | –
COc1ccc(OC)c2c1C=CC(Br)=CC2 | 0.224 µM (active) | 0.229 µM (active) | 0.296 µM (active) | 0.975 µM (active) | 0.295 µM (active) | – | –
CCN(CC)CCNc1c(OC)cc(C)c2sc3ccccc3c(=O)c12 | 7.5 µM (inactive) | – | 5.27 µM (inactive) | 11.9 µM (inactive) | 4.44 µM (inactive) | – | –
NNC(=O)c1ccccc1NC(=O)/C(=C/c1ccccc1)NC(=O)c1ccccc1 | 54.1 µM (inactive) | 72.4 µM (inactive) | 56.8 µM (inactive) | > 100 µM (inactive) | > 100 µM (inactive) | – | –
CC(Cc1ccccc1)N(C)Cc1nc(C2CCC([N+](=O)[O-])O2)no1 (configuration not stated) | 2.46 µM (inactive) | – | 11.9 µM (inactive) | 12.4 µM (inactive) | 4.06 µM (inactive) | – | –
COc1c(C)c(OC)c2c(c1O)[C@@H]1[C@@H]3Cc4c(OC)c(C)c(OC)c(O)c4[C@H](CNC(=O)c4ccc5ccccc5n4)N3[C@@H](C#N)[C@H](C2)N1C | 0.00124 µM (active) | 0.000807 µM (active) | 0.0101 µM (active) | 0.00206 µM (active) | 0.000424 µM (active) | – | –
CNC(=S)Nc1ccc(OC)c2ccccc12 | > 10 µM (inactive) | > 10 µM (inactive) | > 10 µM (inactive) | > 10 µM (inactive) | > 10 µM (inactive) | – | –
CC(C)CC(C#CCCOC(=O)c1ccccc1)OC(=O)c1ccccc1 (configuration not stated) | > 10 µM (inactive) | > 10 µM (inactive) | – | > 10 µM (inactive) | > 10 µM (inactive) | – | –
O=C(O)c1cccc(/N=N/c2c(S(=O)(=O)O)ccc3c2C(=O)c2ccccc2C3=O)c1O | > 100 µM (inactive) | > 100 µM (inactive) | > 100 µM (inactive) | > 100 µM (inactive) | > 100 µM (inactive) | – | –

SMILES | GI50 [1] | GI50 [2] | GI50 [3] | GI50 [4] | GI50 [5] | GI50 [6] | GI50 [7]
CCOC(=O)CNc1nc(=O)c2c(=O)oc(Cl)cc2o1 | 19.3 µM (inactive) | 14.2 µM (inactive) | 21.4 µM (inactive) | 29 µM (inactive) | – | – | –
Cc1ccc(S(=O)(=O)N(CC(O)COc2ccccc2)c2c(F)c(F)c(F)c(F)c2F)cc1 (configuration not stated) | 18.5 µM (inactive) | 15.6 µM (inactive) | 17 µM (inactive) | 22.3 µM (inactive) | 10.5 µM (inactive) | – | –
O=C1CCCC/C1=C\c1ccc(Br)cc1 | 24.5 µM (inactive) | 16.3 µM (inactive) | 3.73 µM (inactive) | 40 µM (inactive) | 2.71 µM (inactive) | – | –
Cc1ccc(/C=C2\CCCC(CN3CCCCC3)C2=O)cc1 (configuration not stated) | 2.13 µM (inactive) | 2.77 µM (inactive) | 5.38 µM (inactive) | 11.7 µM (inactive) | 0.721 µM (active) | – | –
Cc1cccc(-n2c(C)nc3ccc(NC4OC(CO)C(O)C(O)C4O)cc3c2=O)c1 (configuration not stated) | > 100 µM (inactive) | > 100 µM (inactive) | > 100 µM (inactive) | > 100 µM (inactive) | > 100 µM (inactive) | – | –
CN1CCCN2CCN(C)CCN(CC1)CC2 | > 100 µM (inactive) | > 100 µM (inactive) | > 100 µM (inactive) | > 100 µM (inactive) | > 100 µM (inactive) | – | –
CCOc1ccc2ccccc2c1NC1=NCCO1 | 23.1 µM (inactive) | – | 70.3 µM (inactive) | > 100 µM (inactive) | 37.8 µM (inactive) | – | –
O=C1C=C(OCCCCl)C(=O)c2c(O)ccc(O)c21 | 2.42 µM (inactive) | 0.184 µM (active) | 2.65 µM (inactive) | 0.303 µM (active) | 0.195 µM (active) | – | –
Cc1cc(-c2ccccc2)nc(Nc2nc3ccccc3o2)n1 | – | – | – | – | – | > 100 µM (inactive) | > 100 µM (inactive)
CCOC(=O)C(C(N)=O)C1=Nc2cc([N+](=O)[O-])ccc2N/C1=C\C(=O)c1ccccc1 (configuration not stated) | 16.5 µM (inactive) | 18.7 µM (inactive) | 16.8 µM (inactive) | 13.5 µM (inactive) | 12.4 µM (inactive) | – | –
CO[C@]12C[C@@H](CNC(=O)c3cc(Br)c[nH]3)O[C@H]1NC(=O)N2 | > 100 µM (inactive) | – | > 100 µM (inactive) | > 100 µM (inactive) | > 100 µM (inactive) | – | –
Cc1ccc(Nc2nc(N)nc3c2ncn3C2OC(CO)C(O)C2O)cc1 (configuration not stated) | – | > 100 µM (inactive) | > 100 µM (inactive) | > 100 µM (inactive) | > 100 µM (inactive) | – | –
CO[C@]12CCC(=O)N1C=Cc1c2[nH]c2ccccc12 | – | – | – | – | – | > 100 µM (inactive) | > 100 µM (inactive)
COC(=O)[C@H](Cc1c[nH]c2ccccc12)NC(=O)OCC1OC(n2cc(C)c(=O)[nH]c2=O)CC1N=[N+]=[N-] (some centres not stated) | 46.3 µM (inactive) | > 100 µM (inactive) | > 100 µM (inactive) | > 100 µM (inactive) | > 100 µM (inactive) | – | –
C1=C2C3=[N+](CCCC3)CC2Cc2sccc21 (configuration not stated) | > 100 µM (inactive) | > 100 µM (inactive) | > 100 µM (inactive) | > 100 µM (inactive) | > 100 µM (inactive) | – | –
Cc1nn(C(=O)c2ccc(Cl)cc2)c2c1C(c1cccc([N+](=O)[O-])c1)SC(=N)N2 (configuration not stated) | > 10 µM (inactive) | > 10 µM (inactive) | > 10 µM (inactive) | > 10 µM (inactive) | > 10 µM (inactive) | – | –
COc1nc(N)nc2c1ncn2C1CC(O)C(CO)O1 (configuration not stated) | > 100 µM (inactive) | – | > 100 µM (inactive) | > 100 µM (inactive) | > 100 µM (inactive) | – | –
N=C(N)c1ccc(/N=N/c2c(O)ccc3cc(O)ccc23)cc1 | > 100 µM (inactive) | – | > 100 µM (inactive) | – | > 100 µM (inactive) | – | –
COc1cccc(-c2ccc3c4c2O[C@H]2c5[nH]c6ccccc6c5C[C@@]5(O)[C@@H](C3)N(CC3CC3)CC[C@]425)c1 | 1.49 µM (inactive) | 1.85 µM (inactive) | 2.07 µM (inactive) | 2.54 µM (inactive) | 1.69 µM (inactive) | – | –
O=S(=O)(O)c1cccc2c(/N=N/c3c(O)ccc4ccccc34)cccc12 | > 100 µM (inactive) | > 100 µM (inactive) | > 100 µM (inactive) | > 100 µM (inactive) | – | – | –
Cc1cn(C2CC(O)C(COP(=O)(O)OC3CC(n4c[n+]([BH2-]C#N)c5c(=O)[nH]c(N)nc54)OC3CO)O2)c(=O)[nH]c1=O (configuration not stated) | > 100 µM (inactive) | > 100 µM (inactive) | > 100 µM (inactive) | > 100 µM (inactive) | > 100 µM (inactive) | – | –
c1ccc(-c2nc(-c3ccccc3)c(-c3ccccc3)[nH]2)cc1 | 23.9 µM (inactive) | > 88.7 µM (inactive) | 60.3 µM (inactive) | > 100 µM (inactive) | 70.3 µM (inactive) | – | –
CC(NC(=O)C(NC(=O)OCc1ccccc1)C(C)C)C(=O)NCC(=O)O (stereo not drawn) (Cbz-Val-Ala-Gly-OH; configuration not given here) | > 100 µM (inactive) | > 100 µM (inactive) | > 100 µM (inactive) | > 100 µM (inactive) | > 100 µM (inactive) | – | –
CCCCCCCCCCCC/C=C\CC[C@@H](O)[C@H](O)CC[C@H](O)[C@@H]1CC[C@@H](CCCCCCCC2=C[C@H](C)OC2=O)O1 [GIGANTRIONENIN] | 3.03 µM (inactive) | 3.91 µM (inactive) | 1.24 µM (inactive) | 3.66 µM (inactive) | 2.28 µM (inactive) | – | –
